Assay results from patent publication US8617827B2, “Photoactivable fluorescent dyes for optical microscopy and imaging techniques” (Max-Planck-Gesellschaft zur Foerderung der Wissenschaften …, priority 2009, dated 2013).

Assays:
[1] = UV absorption and fluorescence spectra in solution; format: physicochemical; details: for absorption maximum (abs.) / emission maximum (em.): in MeOH, approximate, comparison
[2] = Preparative photolysis in methanol, light >320 nm; format: physicochemical; details: MeOH, under N2, ambient temperature
Experimental: Diazoketone 10 was subjected to photolysis in methanol in order to study the product distribution. Light with wavelengths >320 nm was used. The result of this experiment is presented in Scheme 6.
NMR spectra were recorded with Varian MERCURY 300 spectrometer at 300 (^1H) and 75.5 MHz (^13C and APT). All spectra are referenced to tetramethylsilane as an internal standard (δ=0 ppm) using the signals of the residual protons of CHCl3 (7.26 ppm) in CDCl3, CHD2OD (3.31 ppm) in CD3OD, HOD (4.79 ppm) in D2O or [D5] DMSO (2.50 ppm) in [D6] DMSO. Multiplicities of signals are described as follows: s=singlet, br. s=broad singlet, d=doublet, br. d=broad doublet, t=triplet, q=quartet, m=multiplet. Coupling constants (J) are given in Hz. Multiplicities in the ^13C NMR spectra were determined by APT (Attached Proton Test) measurements. […] Analytical TLC was performed on MERCK ready-to-use plates with silica gel 60 (F254). […]
Photolysis of diazoketone 10: A solution of compound 10 (70 mg, 0.15 mmol) in MeOH (150 mL) was placed into a reactor for photolysis, and nitrogen was bubbled for 30 min through the solution at room temperature with stirring. Then the lamp was turned on, and the reaction mixture was irradiated at ambient temperature with stirring under N2 for 40 min, until the starting compound could not be detected on TLC. […]

absorption maximum (abs.) [1]	emission maximum (em.) [1]	UV λmax ([1]; MeCN) [nm]	ε at λmax ([1]; MeCN)	irradiation time until starting compound could not be detected [2] [min]	Compound
about 560 nm	ca. 580 nm	–	–	–	CCN(CC)c1ccc2c(-c3ccccc3C(=O)O)c3ccc(=[N+](CC)CC)cc-3oc2c1.[Cl-] [rhodamine B, Rhodamine B]
ca. 540 nm	about 560 nm	–	–	–	5/6-carboxy rhodamine Q
–	–	241	59700	40	CCN(CC)c1ccc2c(c1)Oc1cc(N(CC)CC)ccc1C21C(=[N+]=[N-])C(=O)c2ccccc21 [Compound 10]

Compound	absorption maximum (abs.) [1]	emission maximum (em.) [1]	UV λmax ([1]; MeCN) [nm]	ε at λmax ([1]; MeCN)	irradiation time until starting compound could not be detected [2] [min]
CN(C)c1ccc2c(-c3ccccc3C(=O)[O-])c3ccc(N(C)C)cc3[o+]c2c1 [TMR, N,N,N′,N′-Tetramethylrhodamine]	about 560 nm	ca. 580 nm	–	–	–
